# From PubChem BioAssay AID1963828 (Molecular Pharmacology Branch, DTP, NCI, 2024)
# Test system: 991263-137-R1-J2-PDC complex spheroid viability
# Assay: Anticancer human tumor 991263-137-R1-J2-PDC patient-derived colon adenocarcinoma cell line growth inhibition [POLQ]
# Conditions: for IC50: curve of first compound; for viability, T/C: stronger effect = lower value
# Procedure, shortened: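 Three-cell-type spheroids modelling solid tumor plus stroma served as the readout system; POL inhibitors were tested individually and in combination, concentration ranges set by clinical Cmax where known.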
# [1] = second compound 0.0316 µM, first compound 0.0316 µM
# [2] = second compound 0.0316 µM, first compound 0.1 µM
# [3] = second compound 0.0316 µM, first compound 0.316 µM
# [4] = second compound 0.0316 µM, first compound 1 µM
# [5] = second compound 0.1 µM, first compound 0.0316 µM
# [6] = second compound 0.1 µM, first compound 0.1 µM
# [7] = second compound 0.1 µM, first compound 0.316 µM
# [8] = second compound 0.1 µM, first compound 1 µM
# [9] = second compound 0.316 µM, first compound 0.0316 µM
# [10] = second compound 0.316 µM, first compound 0.1 µM
# [11] = second compound 0.316 µM, first compound 0.316 µM
# [12] = second compound 0.316 µM, first compound 1 µM
# [13] = second compound 1 µM, first compound 0.0316 µM
# [14] = second compound 1 µM, first compound 0.1 µM
# [15] = second compound 1 µM, first compound 0.316 µM
# [16] = second compound 1 µM, first compound 1 µM
# [17] = second compound 3.16 µM, first compound 0.0316 µM
# [18] = second compound 3.16 µM, first compound 0.1 µM
# [19] = second compound 3.16 µM, first compound 0.316 µM
# [20] = second compound 3.16 µM, first compound 1 µM
# [21] = second compound 10 µM, first compound 0.0316 µM
# [22] = second compound 10 µM, first compound 0.1 µM
# [23] = second compound 10 µM, first compound 0.316 µM
# [24] = second compound 10 µM, first compound 1 µM
# 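Further: spheroids exposed to compounds for 7 days before readout.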
# 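Wherever viability, T/C is given: 100% = DMSO vehicle control viability.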
smiles,measurement,setting,value
CCc1c2c(nc3ccc(O)cc13)-c1cc3c(c(=O)n1C2)COC(=O)[C@]3(O)CC + COC1C(OC(N)=O)C(O)C(Oc2ccc3c(O)c(NC(=O)c4ccc(O)c(CC=C(C)C)c4)c(=O)oc3c2C)OC1(C)C,IC50,second compound 0.0316 µM,69.1 nM
same,IC50,second compound 0.1 µM,55.1 nM
same,IC50,second compound 0.316 µM,59.2 nM
same,IC50,second compound 1 µM,67.5 nM
same,IC50,second compound 3.16 µM,99.9 nM
same,IC50,second compound 10 µM,59.2 nM
same,"viability, T/C","second compound 0.0316 µM, first compound 0.00316 µM",102%
same,"viability, T/C","second compound 0.0316 µM, first compound 0.01 µM",81%
same,"viability, T/C",[1],54.5%
same,"viability, T/C",[2],45.3%
same,"viability, T/C",[3],41.4%
same,"viability, T/C",[4],25.9%
same,"viability, T/C","second compound 0.1 µM, first compound 0.00316 µM",106%
same,"viability, T/C","second compound 0.1 µM, first compound 0.01 µM",88.4%
same,"viability, T/C",[5],52.9%
same,"viability, T/C",[6],44%
same,"viability, T/C",[7],29.1%
same,"viability, T/C",[8],20.2%
same,"viability, T/C","second compound 0.316 µM, first compound 0.00316 µM",83.3%
same,"viability, T/C","second compound 0.316 µM, first compound 0.01 µM",74.9%
same,"viability, T/C",[9],47.8%
same,"viability, T/C",[10],48.9%
same,"viability, T/C",[11],34.9%
same,"viability, T/C",[12],20.9%
same,"viability, T/C","second compound 1 µM, first compound 0.00316 µM",92.2%
same,"viability, T/C","second compound 1 µM, first compound 0.01 µM",81%
same,"viability, T/C",[13],62.2%
same,"viability, T/C",[14],41.9%
same,"viability, T/C",[15],33.6%
same,"viability, T/C",[16],22.6%
same,"viability, T/C","second compound 3.16 µM, first compound 0.00316 µM",84.1%
same,"viability, T/C","second compound 3.16 µM, first compound 0.01 µM",66.6%
same,"viability, T/C",[17],61.1%
same,"viability, T/C",[18],54.3%
same,"viability, T/C",[19],37.1%
same,"viability, T/C",[20],19.2%
same,"viability, T/C","second compound 10 µM, first compound 0.00316 µM",104%
same,"viability, T/C","second compound 10 µM, first compound 0.01 µM",82.3%
same,"viability, T/C",[21],53.3%
same,"viability, T/C",[22],46.1%
same,"viability, T/C",[23],30.6%
same,"viability, T/C",[24],19.9%
CNCc1ccc(-c2[nH]c3cc(F)cc4c3c2CCNC4=O)cc1 + COC1C(OC(N)=O)C(O)C(Oc2ccc3c(O)c(NC(=O)c4ccc(O)c(CC=C(C)C)c4)c(=O)oc3c2C)OC1(C)C,IC50,second compound 0.0316 µM,> 10000 nM
same,IC50,second compound 0.1 µM,> 10000 nM
same,IC50,second compound 0.316 µM,> 10000 nM
same,IC50,second compound 1 µM,> 10000 nM
same,IC50,second compound 3.16 µM,> 10000 nM
same,IC50,second compound 10 µM,> 10000 nM
same,"viability, T/C",[1],85.7%
same,"viability, T/C",[2],101%
same,"viability, T/C",[3],94%
same,"viability, T/C",[4],97.1%
same,"viability, T/C","second compound 0.0316 µM, first compound 3.16 µM",121%
same,"viability, T/C","second compound 0.0316 µM, first compound 10 µM",103%
same,"viability, T/C",[5],106%
same,"viability, T/C",[6],104%
same,"viability, T/C",[7],109%
same,"viability, T/C",[8],98.5%
same,"viability, T/C","second compound 0.1 µM, first compound 3.16 µM",101%
same,"viability, T/C","second compound 0.1 µM, first compound 10 µM",95.9%
same,"viability, T/C",[9],105%
same,"viability, T/C",[10],91.6%
same,"viability, T/C",[11],106%
same,"viability, T/C",[12],100%
same,"viability, T/C","second compound 0.316 µM, first compound 3.16 µM",99.6%
same,"viability, T/C","second compound 0.316 µM, first compound 10 µM",98.5%
same,"viability, T/C",[13],82.1%
same,"viability, T/C",[14],111%
same,"viability, T/C",[15],117%
same,"viability, T/C",[16],104%
same,"viability, T/C","second compound 1 µM, first compound 3.16 µM",110%
same,"viability, T/C","second compound 1 µM, first compound 10 µM",97.3%
same,"viability, T/C",[17],92.2%
same,"viability, T/C",[18],112%
same,"viability, T/C",[19],111%
same,"viability, T/C",[20],106%
same,"viability, T/C","second compound 3.16 µM, first compound 3.16 µM",119%
same,"viability, T/C","second compound 3.16 µM, first compound 10 µM",102%
same,"viability, T/C",[21],107%
same,"viability, T/C",[22],110%
same,"viability, T/C",[23],105%
same,"viability, T/C",[24],102%
same,"viability, T/C","second compound 10 µM, first compound 3.16 µM",119%
same,"viability, T/C","second compound 10 µM, first compound 10 µM",106%
